Source: PubChem BioAssay (NCI)
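48-hour exposure; five concentrations; linearly interpolated endpoints. The concentration for 50% growth inhibition is given as GI50. Definition used: TGI = concentration required for complete inhibition of growth.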

Assays:
Assay in all cases: growth of human tumour cells (NCI), 48 h
U251 CNS = tested on: U251 CNS
SF-268 CNS = tested on: SF-268 CNS
HCT-15 colon = tested on: HCT-15 colon
SW-620 colon = tested on: SW-620 colon
RXF 393 renal = tested on: RXF 393 renal
A498 renal = tested on: A498 renal
SN12C renal = tested on: SN12C renal
OVCAR-5 ovarian = tested on: OVCAR-5 ovarian
NCI-H460 lung = tested on: NCI-H460 lung
SK-MEL-5 melanoma = tested on: SK-MEL-5 melanoma
OVCAR-3 ovarian = tested on: OVCAR-3 ovarian
UO-31 renal = tested on: UO-31 renal
RPMI-8226 leukemia = tested on: RPMI-8226 leukemia
MDA-MB-435 = tested on: MDA-MB-435
NCI-H226 lung = tested on: NCI-H226 lung
MCF7 breast = tested on: MCF7 breast
A549 NSCLC = tested on: A549 NSCLC
786-0 renal = tested on: 786-0 renal
MOLT-4 leukemia = tested on: MOLT-4 leukemia
UACC-257 melanoma = tested on: UACC-257 melanoma
SNB-19 CNS = tested on: SNB-19 CNS
HCC-2998 colon = tested on: HCC-2998 colon
ACHN renal = tested on: ACHN renal
NCI-H522 lung = tested on: NCI-H522 lung
TK-10 renal = tested on: TK-10 renal
UACC-62 melanoma = tested on: UACC-62 melanoma
IGROV1 ovarian = tested on: IGROV1 ovarian
MDA-MB-231 breast = tested on: MDA-MB-231 breast
COLO 205 colon = tested on: COLO 205 colon
M14 melanoma = tested on: M14 melanoma
SF-295 CNS = tested on: SF-295 CNS
EKVX NSCLC = tested on: EKVX NSCLC
SK-OV-3 ovarian = tested on: SK-OV-3 ovarian
SR leukemia = tested on: SR leukemia
HS 578T breast = tested on: HS 578T breast
CCRF-CEM leukemia = tested on: CCRF-CEM leukemia
HCT-116 colon = tested on: HCT-116 colon
BT-549 breast = tested on: BT-549 breast
K-562 leukemia = tested on: K-562 leukemia
OVCAR-8 ovarian = tested on: OVCAR-8 ovarian
NCI/ADR-RES ovarian = tested on: NCI/ADR-RES ovarian
T-47D breast = tested on: T-47D breast
KM12 colon = tested on: KM12 colon
PC-3 prostate = tested on: PC-3 prostate
NCI-H23 lung = tested on: NCI-H23 lung
LOX IMVI melanoma = tested on: LOX IMVI melanoma
CAKI-1 renal = tested on: CAKI-1 renal
SK-MEL-2 melanoma = tested on: SK-MEL-2 melanoma
SF-539 CNS = tested on: SF-539 CNS
HOP-92 NSCLC = tested on: HOP-92 NSCLC
OVCAR-4 ovarian = tested on: OVCAR-4 ovarian
MALME-3M melanoma = tested on: MALME-3M melanoma
HT29 colon = tested on: HT29 colon
SK-MEL-28 melanoma = tested on: SK-MEL-28 melanoma
HL-60(TB) leukemia = tested on: HL-60(TB) leukemia
SNB-75 CNS = tested on: SNB-75 CNS
HOP-62 NSCLC = tested on: HOP-62 NSCLC
DU-145 prostate = tested on: DU-145 prostate

Oc1ccc(O)c(-c2cn3c(n2)SCC3)c1
GI50 (U251 CNS): 18.3 µM | TGI (U251 CNS): 33.6 µM | GI50 (SF-268 CNS): 28.7 µM | TGI (SF-268 CNS): > 100 µM | GI50 (HCT-15 colon): 19.1 µM | TGI (HCT-15 colon): 36.9 µM | GI50 (SW-620 colon): 3.19 µM | TGI (SW-620 colon): 8.17 µM | GI50 (RXF 393 renal): 18.4 µM | TGI (RXF 393 renal): 36.2 µM | GI50 (A498 renal): 20.9 µM | TGI (A498 renal): 75.7 µM | GI50 (SN12C renal): 13.9 µM | TGI (SN12C renal): 29.2 µM | GI50 (OVCAR-5 ovarian): 17.5 µM | TGI (OVCAR-5 ovarian): 33.3 µM | GI50 (NCI-H460 lung): 60.9 µM | TGI (NCI-H460 lung): > 100 µM | GI50 (SK-MEL-5 melanoma): 16.9 µM | TGI (SK-MEL-5 melanoma): 33 µM | GI50 (OVCAR-3 ovarian): 9.36 µM | TGI (OVCAR-3 ovarian): 28.1 µM | GI50 (UO-31 renal): 20.7 µM | TGI (UO-31 renal): > 100 µM | GI50 (RPMI-8226 leukemia): 4.08 µM | TGI (RPMI-8226 leukemia): > 100 µM | GI50 (MDA-MB-435): 15.8 µM | TGI (MDA-MB-435): 35.2 µM | GI50 (NCI-H226 lung): 6.85 µM | TGI (NCI-H226 lung): 28.6 µM | GI50 (MCF7 breast): 26.8 µM | TGI (MCF7 breast): > 100 µM | GI50 (A549 NSCLC): 47.5 µM | TGI (A549 NSCLC): > 100 µM | GI50 (786-0 renal): 2.32 µM | TGI (786-0 renal): 6.59 µM | GI50 (MOLT-4 leukemia): 4.37 µM | TGI (MOLT-4 leukemia): 9.55 µM | GI50 (UACC-257 melanoma): 25.5 µM | TGI (UACC-257 melanoma): 55.8 µM | GI50 (SNB-19 CNS): 21.3 µM | TGI (SNB-19 CNS): 45.4 µM | GI50 (HCC-2998 colon): 19.6 µM | TGI (HCC-2998 colon): 36.2 µM | GI50 (ACHN renal): 20.4 µM | TGI (ACHN renal): 34.7 µM | GI50 (NCI-H522 lung): 4.93 µM | TGI (NCI-H522 lung): > 100 µM | GI50 (TK-10 renal): 21.3 µM | TGI (TK-10 renal): 37.3 µM | GI50 (UACC-62 melanoma): 11.2 µM | TGI (UACC-62 melanoma): 24.7 µM | GI50 (IGROV1 ovarian): 39.9 µM | TGI (IGROV1 ovarian): > 100 µM | GI50 (MDA-MB-231 breast): 11.7 µM | TGI (MDA-MB-231 breast): 26.5 µM | GI50 (COLO 205 colon): 17 µM | TGI (COLO 205 colon): 37.8 µM | GI50 (M14 melanoma): 15.5 µM | TGI (M14 melanoma): 31.3 µM | GI50 (SF-295 CNS): 14.8 µM | TGI (SF-295 CNS): 38.7 µM | GI50 (EKVX NSCLC): 19.5 µM | TGI (EKVX NSCLC): 37.3 µM | GI50 (SK-OV-3 ovarian): 12.5 µM | TGI (SK-OV-3 ovarian): 40.6 µM | GI50 (SR leukemia): 4.03 µM | TGI (SR leukemia): 10.4 µM | GI50 (HS 578T breast): 18.6 µM | TGI (HS 578T breast): 90.7 µM | GI50 (CCRF-CEM leukemia): 5.18 µM | TGI (CCRF-CEM leukemia): > 100 µM | GI50 (HCT-116 colon): 3.07 µM | TGI (HCT-116 colon): 7.81 µM | GI50 (BT-549 breast): 11.8 µM | TGI (BT-549 breast): 25.7 µM | GI50 (K-562 leukemia): 7.24 µM | TGI (K-562 leukemia): > 100 µM | GI50 (OVCAR-8 ovarian): 19.7 µM | TGI (OVCAR-8 ovarian): 52.1 µM | GI50 (NCI/ADR-RES ovarian): 17.2 µM | TGI (NCI/ADR-RES ovarian): 39.1 µM | GI50 (T-47D breast): 17.5 µM | TGI (T-47D breast): 42.2 µM | GI50 (KM12 colon): 16.9 µM | TGI (KM12 colon): 38.2 µM | GI50 (PC-3 prostate): 19.1 µM | TGI (PC-3 prostate): 38 µM | GI50 (NCI-H23 lung): 24.4 µM | TGI (NCI-H23 lung): 73.4 µM | GI50 (LOX IMVI melanoma): 17.5 µM | TGI (LOX IMVI melanoma): 31.5 µM | GI50 (CAKI-1 renal): 2.47 µM | TGI (CAKI-1 renal): 5.57 µM | GI50 (SK-MEL-2 melanoma): 78.8 µM | TGI (SK-MEL-2 melanoma): > 100 µM

CC1CCN(Cc2ccc(NC(=O)c3cc4ccc5cccnc5c4[nH]3)cc2)CC1
GI50 (U251 CNS): 2.8 µM | TGI (U251 CNS): 10.3 µM | GI50 (SF-268 CNS): 7.07 µM | TGI (SF-268 CNS): 40.9 µM | GI50 (HCT-15 colon): 3.07 µM | TGI (HCT-15 colon): 18.5 µM | GI50 (SF-539 CNS): 1.94 µM | TGI (SF-539 CNS): 4.01 µM | GI50 (SW-620 colon): 3.4 µM | TGI (SW-620 colon): 16.6 µM | GI50 (RXF 393 renal): 2.18 µM | TGI (RXF 393 renal): 6.26 µM | GI50 (A498 renal): 2.42 µM | TGI (A498 renal): 12.9 µM | GI50 (SN12C renal): 7.9 µM | TGI (SN12C renal): 29.4 µM | GI50 (OVCAR-5 ovarian): 11.3 µM | TGI (OVCAR-5 ovarian): 35.3 µM | GI50 (NCI-H460 lung): 4.16 µM | TGI (NCI-H460 lung): 28.1 µM | GI50 (OVCAR-3 ovarian): 7.83 µM | TGI (OVCAR-3 ovarian): 39.2 µM | GI50 (UO-31 renal): 2.05 µM | TGI (UO-31 renal): 8.18 µM | GI50 (RPMI-8226 leukemia): 2.58 µM | TGI (RPMI-8226 leukemia): 6.99 µM | GI50 (MDA-MB-435): 1.99 µM | TGI (MDA-MB-435): 4.24 µM | GI50 (NCI-H226 lung): 23.5 µM | TGI (NCI-H226 lung): 73.4 µM | GI50 (MCF7 breast): 2.48 µM | TGI (MCF7 breast): 14.7 µM | GI50 (786-0 renal): 2.71 µM | TGI (786-0 renal): 8.46 µM | GI50 (MOLT-4 leukemia): 3 µM | TGI (MOLT-4 leukemia): 9.85 µM | GI50 (HOP-92 NSCLC): 4.76 µM | TGI (HOP-92 NSCLC): 20.5 µM | GI50 (SNB-19 CNS): 13.1 µM | TGI (SNB-19 CNS): 27.6 µM | GI50 (HCC-2998 colon): 2.55 µM | TGI (HCC-2998 colon): 5.8 µM | GI50 (OVCAR-4 ovarian): 16.5 µM | TGI (OVCAR-4 ovarian): > 100 µM | GI50 (ACHN renal): 5.47 µM | TGI (ACHN renal): 23.1 µM | GI50 (TK-10 renal): 8.56 µM | TGI (TK-10 renal): 23.2 µM | GI50 (MALME-3M melanoma): 2.05 µM | TGI (MALME-3M melanoma): 3.72 µM | GI50 (HT29 colon): 3 µM | TGI (HT29 colon): 14.5 µM | GI50 (UACC-62 melanoma): 2.17 µM | TGI (UACC-62 melanoma): 4.54 µM | GI50 (IGROV1 ovarian): 6.15 µM | TGI (IGROV1 ovarian): 54.1 µM | GI50 (SK-MEL-28 melanoma): 1.79 µM | TGI (SK-MEL-28 melanoma): 3.49 µM | GI50 (MDA-MB-231 breast): 5.59 µM | TGI (MDA-MB-231 breast): 23.2 µM | GI50 (M14 melanoma): 2.05 µM | TGI (M14 melanoma): 4.08 µM | GI50 (HL-60(TB) leukemia): 3.16 µM | TGI (HL-60(TB) leukemia): 13.1 µM | GI50 (SF-295 CNS): 1.98 µM | TGI (SF-295 CNS): 4.45 µM | GI50 (SK-OV-3 ovarian): 6.98 µM | TGI (SK-OV-3 ovarian): 42.5 µM | GI50 (SNB-75 CNS): 10.8 µM | TGI (SNB-75 CNS): 27.8 µM | GI50 (SR leukemia): 2.29 µM | TGI (SR leukemia): 6.65 µM | GI50 (HS 578T breast): 4.09 µM | TGI (HS 578T breast): 28.3 µM | GI50 (HCT-116 colon): 4.18 µM | TGI (HCT-116 colon): 19.6 µM | GI50 (HOP-62 NSCLC): 5.27 µM | TGI (HOP-62 NSCLC): 33.9 µM | GI50 (BT-549 breast): 10.8 µM | TGI (BT-549 breast): 24.3 µM | GI50 (K-562 leukemia): 2.53 µM | TGI (K-562 leukemia): 9.07 µM | GI50 (DU-145 prostate): 8.79 µM | TGI (DU-145 prostate): > 100 µM | GI50 (OVCAR-8 ovarian): 10.6 µM | TGI (OVCAR-8 ovarian): 29.5 µM | GI50 (NCI/ADR-RES ovarian): 17.3 µM | TGI (NCI/ADR-RES ovarian): 68.9 µM | GI50 (T-47D breast): 6.81 µM | TGI (T-47D breast): 28.3 µM | GI50 (KM12 colon): 5.31 µM | TGI (KM12 colon): 35.8 µM | GI50 (PC-3 prostate): 5.1 µM | TGI (PC-3 prostate): 23.7 µM | GI50 (NCI-H23 lung): 14.4 µM | TGI (NCI-H23 lung): 37.7 µM | GI50 (CAKI-1 renal): 6.58 µM | TGI (CAKI-1 renal): 31 µM | GI50 (SK-MEL-2 melanoma): 2.45 µM | TGI (SK-MEL-2 melanoma): 6.2 µM
